Laboratory results as given in patent US9717751B2, “Chitin or derivatives thereof for the prevention and/or treatment of parasitoses” (LESAFFRE ET COMPAGNIE, priority 2012, dated 2017).
Where “and” joins values, the source holds several entries; their conditions need not be identical. Identical values can stand only once. Counter-ions that a name gives are not always drawn.

What was measured:
[1] = system: C. parvum; test: Effect of the compounds on C. parvum development in CMT-93 murine cells; type: cell-based, Cryptosporidium parvum; conditions: CMT-93 cells, 18 μg/ml
Description: The C. parvum oocysts used were isolated from feces (stools) of calves that had been experimentally infected (by INRA [French National Institute for Agricultural Research] of Tours).
The tests are carried out on cells of the CMT-93 murine line (mycoplasma-free) cultured in complete medium comprising 10% of FCS (Fetal Calf Serum).
Interferon-γ at 10 ng/ml is used as a positive control. This is because partial inhibition of C. parvum multiplication in enterocytes under the action of this cytokine has been described.
The cells of the CMT-93 line are seeded in a proportion of 3.6×10^5 cells per well.
The test compounds are added after 8 h.
After 24 h, the cells are lysed with trypsin and labeled with a fluorescent lectin (VVL-FITC), in order to be able to find the infected cells with a fluorescence microscope. The number of infected cells is found manually.

[2] = system: C. parvum; test: Preincubation test: C. parvum oocysts preincubated 24 h with compound, then infection of HCT-8 cells; type: cell-based, Cryptosporidium parvum; conditions: preincubation 24 h, 500 μg/ml; for Number of sporozoites: single tests; for Number of sporozoites, Mean: triplicate mean; for viability at 500 µg/mL: Cryptosporidium parvum, T+ = 100, read-out: % of viable sporozoites
Description: (§1) Two cell models were tested: HCT-8 cells (human ileocecal adenocarcinoma cells) and Caco-2 cells (human colonic adenocarcinoma cells). The Iowa Cryptosporidium parvum strain (Waterborne inc., New Orleans, La., USA) is used for the tests. The infection is carried out on cells at 70%-80% confluence, cultured in a monolayer on collagen-coated coverslips in 24-well plates. The supernatant of the cells in a monolayer is replaced with 3 ml of culture medium to which 1×10^4 C. parvum oocysts are added. After incubation for 3 hours in a humid incubator at 37° C. and 5% CO2, the supernatant is replaced with 3 ml of culture medium and incubated for 48 h in a humid incubator at 37° C., 5% CO2 and 80% humidity. In each well of a plate, 1×10^4 oocysts are brought into contact with 500 μg/ml of paromomycin, chitosan or NAG. The plates are incubated for 24 h in a humid incubator at 37° C. and 5% CO2. The cells are then infected as indicated above. The intracellular oocysts are stained after fixing the cells with methanol. The labeling is carried out using a specific conjugated polyclonal antibody (Sporo-Glo 20×Waterborne inc., New Orleans, La., USA). The coverslips are then mounted on slides. The intracellular oocysts are counted with a fluorescence microscope. On each slide, 6×50 fields randomly chosen over the entire surface area of the slide are counted. The results obtained are a triplicate mean. The data are analyzed by ANOVA. A p-value of less than or equal to 0.05 is considered to be significant. The tested compounds are incubated for 24 h with C. parvum oocysts before the in vitro infection at a dose of 500 μg/ml.

[3] = system: C. parvum; test: Preincubation test: C. parvum oocysts preincubated 24 h with compound, then infection of Caco-2 cells; type: cell-based, Cryptosporidium parvum; conditions: preincubation 24 h, 500 μg/ml; for Number of sporozoites, Mean: triplicate mean; for viability at 500 µg/mL: Cryptosporidium parvum, T+ = 100, read-out: % of viable sporozoites
Description: as §1

[4] = system: C. parvum; test: Direct test: compound added to C. parvum-infected HCT-8 cells; type: cell-based, Cryptosporidium parvum; conditions: direct addition, 500 μg/ml; for Number of sporozoites: single tests; for Number of sporozoites, Mean: triplicate mean; for viability at 500 µg/mL: Cryptosporidium parvum, T+ = 100, read-out: % of viable sporozoites
Description: (§2) Two cell models were tested: HCT-8 cells (human ileocecal adenocarcinoma cells) and Caco-2 cells (human colonic adenocarcinoma cells).
(§3) The Iowa Cryptosporidium parvum strain (Waterborne inc., New Orleans, La., USA) is used for the tests.
(§4) The infection is carried out on cells at 70%-80% confluence, cultured in a monolayer on collagen-coated coverslips in 24-well plates.
(§5) The supernatant of the cells in a monolayer is replaced with 3 ml of culture medium to which 1×10^4 C. parvum oocysts are added. After incubation for 3 hours in a humid incubator at 37° C. and 5% CO2, the supernatant is replaced with 3 ml of culture medium and incubated for 48 h in a humid incubator at 37° C., 5% CO2 and 80% humidity.
(§6) The culture medium of the infected cells is replaced with 1 ml of culture medium to which the test compound is then added, at a final concentration of 500 μg/ml.
(§7) The plates are incubated for 48 h in a humid incubator at 37° C. and 5% CO2.
(§8) The intracellular oocysts are stained after fixing the cells with methanol. The labeling is carried out using a specific conjugated polyclonal antibody (Sporo-Glo 20×Waterborne inc., New Orleans, La., USA). The coverslips are then mounted on slides. The intracellular oocysts are counted with a fluorescence microscope.
(§9) On each slide, 6×50 fields randomly chosen over the entire surface area of the slide are counted.
(§10) The results obtained are a triplicate mean. The data are analyzed by ANOVA. A p-value of less than or equal to 0.05 is considered to be significant.
(§11) The various compounds are tested at a dose of 500 μg/ml.

[5] = system: C. parvum; test: Direct test: compound added to C. parvum-infected Caco-2 cells; type: cell-based, Cryptosporidium parvum; conditions: direct addition, 500 μg/ml; for Number of sporozoites: single tests; for Number of sporozoites, Mean: triplicate mean; for viability at 500 µg/mL: Cryptosporidium parvum, T+ = 100, read-out: % of viable sporozoites
Description: as §2, §3, §4, §5, §6, §7, §8, §9, §10, §11

[6] = system: CMT-93 cells; test: Chemokine production by epithelial cells (quantitative RT-PCR); type: cell-based, murine; conditions: 24 h incubation
Description: The tests are carried out on cells of the CMT-93 murine line (mycoplasma-free) cultured in complete medium comprising 10% of FCS (Fetal Calf Serum) or on dendritic cells derived from bone marrow (immature) in the presence of GM-CSF (Granulocyte Macrophage Colony Stimulating Factor) added regularly to the culture for 9 days. Chemokine production by the epithelium or other intestinal cells is important for the recruitment of the inflammatory cells required for protection against cryptosporidiosis in newborns. Chemokine production by epithelial cells is measured by quantitative RT-PCR (quantification by incorporation of Sybr green) after incubation of CMT-93 cells with the various compounds for 24 h.

Compound | reduction of parasite development [2] [%] | Number of sporozoites, Mean [2] | reduction of parasite development [3] [%] | Number of sporozoites, Mean [3] | effectiveness compared with paromomycin [4] | reduction in parasite development [4] [%] | Number of sporozoites, Mean ([4]; 48 h) | reduction in parasite development [5] [%] | Number of sporozoites, Mean ([5]; 48 h) | reduction of parasite multiplication compared with the nontreated control [1] [%] | viability at 500 µg/mL [2] [%] | viability at 500 µg/mL [3] [%] | viability at 500 µg/mL ([4]; 48 h) [%] | Number of sporozoites ([4]; 48 h) | viability at 500 µg/mL ([5]; 48 h) [%] | further results
poly-(N-deacetyl-D-glucosamine) [insoluble chitosan] | – | – | – | – | – | – | – | – | – | – | – | – | – | – | – | infected cells ([1]; nontreated control 50% of infected cells): approximately 40%
chitosan hydrochloride | 95.7 | 47 | 97.6 | 28 | more effective than paromomycin | 93.6 | 73 | 68 | 282 | 31 | – | – | – | – | – | % of viable sporozoites ([2]; T+ = 100): 4.3%; Number of sporozoites ([2]; hydrochloride): 47 and 52 and 37; % of viable sporozoites ([3]; T+ = 100): 2.44%; % of viable sporozoites ([4]; 48 h, T+ = 100): 6.4%; Number of sporozoites ([4]; 48 h, hydrochloride): 90 and 66 and 64; effectiveness compared with paromomycin [5]: more effective; % of viable sporozoites ([5]; 48 h, T+ = 100): 32.0%; Number of sporozoites ([5]; 48 h, hydrochloride): 372 and 199 and 276
NC[C@@H]1O[C@H](O[C@H]2[C@@H](O)[C@H](O[C@@H]3[C@@H](O)[C@H](N)C[C@H](N)[C@H]3O[C@H]3O[C@H](CO)[C@@H](O)[C@H](O)[C@H]3N)O[C@@H]2CO)[C@H](N)[C@@H](O)[C@@H]1O [Paromomycin, paromomycin sulfate, reference compound] | 99.5 | 6 | 97.1 | 33 | – | 44.6 | 191 | 33.6 | 592 | – | 0.53 | 2.87 | 55.4 | 208 and 178 and 187 | 66.4 | –
CC(=O)N[C@H]1C(O)O[C@H](CO)[C@@H](O)[C@@H]1O (stereo partly drawn) [NAG, N-acetylglucosamine] | 99.0 | 11 | 97.4 | 30 | more effective than paromomycin | 88.4 | 134 | 35.2 | 571 | 43 | 0.99 | 2.61 | 11.6 | 172 and 131 and 99 | 64.8 | Number of sporozoites [2]: 12 and 14 and 7; Number of sporozoites ([3]; single tests): 21 and 39 and 31; Number of sporozoites ([5]; 48 h): 656 and 485 and 337; production of chemokines CXCL10 and CCL20, ranking of the products [6]: most effective
